Source: patent US9556135B2, “Amino-dihydrothiazine and amino-dioxido dihydrothiazine compounds as beta-secretase antagonists and methods of use” (Amgen Inc., priority 2012, dated 2017)
Like-named read-outs stand apart in the source and are kept apart here.

Experiments:
[1] = biological target: Cathepsin D (Cat D) (Homo sapiens (Human), UniProt P07339); experiment: In vitro enzymatic Cathepsin D (Cat D) FRET assay; format: biochemical; details: read-out: CatD IC50
Procedure: In Vitro Enzymatic Cathepsin D (Cat D) FRET (Fluorescence Resonance Energy Transfer) Assay Recombinant Cat D was expressed in CHO cells. […] The Cat D enzyme (9 nM) is pre-incubated for one hour with inhibitors, typically in about 1 uL of DMSO according to a serial dilution, is added thereto. […] The FRET assay is terminated with by addition of Tris buffer, which raises the pH to neutrality, and the fluorescence is determined. The FRET substrate is a peptide with commercially available fluorophore and quencher, on opposite sides of the BACE cleavage site. The Cat D substrate peptide sequence is based on sequence #1 of Table 1 from Gulnik et al. […] Where available, the in-vitro Cat D FRET assay data for each of the Examples, conducted by the first procedure, is provided.

[2] = biological target: Beta Secretase enzyme (BACE1) (Homo sapiens (Human), UniProt P56817); experiment: In vitro enzymatic BACE FRET assay; format: biochemical
Procedure: In Vitro Enzymatic BACE FRET (Fluorescence Resonance Energy Transfer) Assay (Enzyme Assay Data in the Example Tables I and II)
The assay buffer used in this screen is 0.05 M acetate, pH 4.2, 10% DMSO final, 100 uM genapol (which is a nonionic detergent, below its Critical Micelle Concentration). […] This assay is effectively started by the addition of FRET substrate (50 nM) and the combination is incubated for one hour. The FRET assay is terminated with by addition of Tris buffer, which raises the pH to neutrality, and the fluorescence is determined. The FRET substrate is a peptide with commercially available fluorophore and quencher, on opposite sides of the BACE cleavage site. Proteolytic cleavage of the FRET substrate releases quenching of fluorescence (excitation […] and […]).

[3] = tested on: Abeta 40; experiment: In vivo inhibition of beta-secretase: Abeta 40 reduction in CSF and brain of the rat; details: 10 mpk (unless otherwise noted), after 4 hrs
From the text: In Vivo Inhibition of Beta-Secretase
Several animal models, including mouse, rat, dog, and monkey, may be used to screen for inhibition of beta-secretase activity in vivo following administration of a test compound sample. Animals used in this invention can be wild type, transgenic, or gene knockout animals. […] One to twenty-four hours following the administration of compound, animals are sacrificed, and brains as well as cerebrospinal fluid (CSF) and plasma are removed for analysis of A-beta levels and drug or test compound concentrations (Dovey et al., 2001, Journal of Neurochemistry, 76, 173-181) Beginning at time 0, animals are administered by oral gavage, or other means of delivery such as intravenous injection, an inhibitory test compound of up to 100 mg/kg in a standard, conventional formulation, such as 2% hydroxypropyl methylcellulose, 1% Tween80. A separate group of animals receive 2% hydroxypropyl methylcellulose, 1% Tween80 alone, containing no test compound, and serve as a vehicle-control group. At the end of the test period, animals are sacrificed and brain tissues, plasma or cerebrospinal fluid are collected. Brains are either homogenized in 10 volumes (w/v) of 0.2% diethylamine (DEA) in 50 mM NaCl (Best et al., 2005, Journal of Pharmacology and Experimental Therapeutics, 313, 902-908), or in 10 volumes of 0.5% TritonX-100 in Tris-buffered saline (pH at about 7.6). Homogenates are centrifuged at 355,000 g, 4° C. for 30 minutes. CSF or brain supernatants are then analyzed for the presence of A-beta peptide by specific sandwich ELISA assays based on ECL (Electrochemiluminescence) technology. For example, rat Abeta40 is measured using biotinylated-4G8 (Signet) as a capture antibody and Fab40 (an in-house antibody specific to the C-terminal of Abeta40) as a detection antibody.
Actual vehicles used: Oral: 2% HPMC, 1% Tween80, pH 2.2

Chain of Cathepsin D (Cat D) (P07339 65-412, species assumed): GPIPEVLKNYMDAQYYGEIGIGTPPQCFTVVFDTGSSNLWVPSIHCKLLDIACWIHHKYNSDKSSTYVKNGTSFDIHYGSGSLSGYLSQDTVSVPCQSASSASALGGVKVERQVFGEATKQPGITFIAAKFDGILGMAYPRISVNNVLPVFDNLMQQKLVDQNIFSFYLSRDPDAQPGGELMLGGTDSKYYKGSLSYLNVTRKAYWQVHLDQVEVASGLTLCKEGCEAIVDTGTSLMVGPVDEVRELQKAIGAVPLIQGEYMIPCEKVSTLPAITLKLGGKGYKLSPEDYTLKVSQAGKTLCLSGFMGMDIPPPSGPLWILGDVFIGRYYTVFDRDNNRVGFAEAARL
Chain of Beta Secretase enzyme (BACE1) (P56817 46-501): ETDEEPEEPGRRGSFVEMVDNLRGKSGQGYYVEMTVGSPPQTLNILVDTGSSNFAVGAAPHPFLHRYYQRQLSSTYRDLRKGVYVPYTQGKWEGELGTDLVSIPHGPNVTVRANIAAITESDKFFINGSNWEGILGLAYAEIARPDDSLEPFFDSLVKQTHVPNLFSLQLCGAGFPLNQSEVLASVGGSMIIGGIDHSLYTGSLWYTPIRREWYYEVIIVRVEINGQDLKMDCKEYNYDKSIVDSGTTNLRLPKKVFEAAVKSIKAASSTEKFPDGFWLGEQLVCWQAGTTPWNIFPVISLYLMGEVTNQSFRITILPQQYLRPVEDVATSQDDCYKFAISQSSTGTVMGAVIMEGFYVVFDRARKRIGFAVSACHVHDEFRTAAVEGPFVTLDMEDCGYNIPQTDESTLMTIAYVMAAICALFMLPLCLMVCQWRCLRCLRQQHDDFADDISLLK

Row | SMILES | IC50 [1] [µM] | % reduction of rat CSF levels at 10 pmk [3] [%] | % reduction of rat brain levels at 10 mpk [3] [%] | also measured
1 | CC1(C)C(N)=N[C@@]2(c3cc(Br)ccc3F)COC[C@H]2S1(=O)=O [Example 185a, (4aS,7aS)-3-amino-4a-(5-bromo-2-fluorophenyl)-2,2-dimethyl-4a,5,7,7a-tetrahydro-2H-furo[3,4-b][1,4]thiazine 1,1-dioxide] | 70.9 | – | – | IC50 ([2]; average IC50, enzyme assay): 4.83 µM
2 | CC1(C)C(N)=N[C@]2(c3cc(Br)ccc3F)COC[C@@H]2S1(=O)=O [Example 185b, (4aR,7aR)-3-amino-4a-(5-bromo-2-fluorophenyl)-2,2-dimethyl-4a,5,7,7a-tetrahydro-2H-furo[3,4-b][1,4]thiazine 1,1-dioxide] | > 400 | – | – | IC50 ([2]; average IC50, enzyme assay): > 40 µM
3 | CC1(C)C(N)=N[C@@]2(c3cc(N)ccc3F)COC[C@H]2S1(=O)=O [Example 185c, (4aS,7aS)-3-amino-4a-(5-amino-2-fluorophenyl)-2,2-dimethyl-4a,5,7,7a-tetrahydro-2H-furo[3,4-b][1,4]thiazine 1,1-dioxide] | – | – | – | IC50 ([1]; Cathepsin D FRET assay): > 400 µM; IC50 ([2]; average IC50, enzyme assay): > 40 µM
4 | CC1(C)C(N)=N[C@]2(c3cc(N)ccc3F)COC[C@@H]2S1(=O)=O [Example 185d, (4aR,7aR)-3-amino-4a-(5-amino-2-fluorophenyl)-2,2-dimethyl-4a,5,7,7a-tetrahydro-2H-furo[3,4-b][1,4]thiazine 1,1-dioxide] | – | – | – | IC50 ([1]; Cathepsin D FRET assay): 152 µM; IC50 ([2]; average IC50, enzyme assay): 3.83 µM
5 | CC1(C)C(N)=N[C@](C)(c2cc(NC(=O)c3ccc(Cl)cn3)cnc2F)CS1(=O)=O [Example 398, N-(5-((3R)-5-amino-3,6,6-trimethyl-1,1-dioxido-3,6-dihydro-2H-1,4-thiazin-3-yl)-6-fluoro-3-pyridinyl)-5-chloro-2-pyridinecarboxamide] | – | 63 | 39 | –
6 | Cc1cc(OC(F)F)cnc1C(=O)Nc1cnc(F)c([C@]2(C)CS(=O)(=O)C(C)(C)C(N)=N2)c1 [Example 400, N-(5-((3R)-5-amino-3,6,6-trimethyl-1,1-dioxido-3,6-dihydro-2H-1,4-thiazin-3-yl)-6-fluoro-3-pyridinyl)-5-(difluoromethoxy)-3-methyl-2-pyridinecarboxamide] | – | 58 | 25 | –
7 | COc1ccc(C(=O)Nc2cnc(F)c([C@]3(C)CS(=O)(=O)C(C)(C)C(N)=N3)c2)nc1 [Example 401, N-(5-((3R)-5-amino-3,6,6-trimethyl-1,1-dioxido-3,6-dihydro-2H-1,4-thiazin-3-yl)-6-fluoro-3-pyridinyl)-5-methoxy-2-pyridinecarboxamide] | – | 69 | 48 | –
8 | CC1(C)C(N)=N[C@](C)(c2cc(NC(=O)c3cnc(OCC(F)(F)F)cn3)cnc2F)CS1(=O)=O [Example 402, N-(5-((3R)-5-amino-3,6,6-trimethyl-1,1-dioxido-3,6-dihydro-2H-1,4-thiazin-3-yl)-6-fluoro-3-pyridinyl)-5-(2,2,2-trifluoroethoxy)-2-pyrazinecarboxamide] | – | 43 | 10 | –
9 | Cc1cc(Cl)cnc1C(=O)Nc1ccc(F)c([C@]2(CF)CS(=O)(=O)C(C)(C)C(N)=N2)c1 [Example 408, N-(3-((3S)-5-amino-3-(fluoromethyl)-6,6-dimethyl-1,1-dioxido-3,6-dihydro-2H-1,4-thiazin-3-yl)-4-fluorophenyl)-5-chloro-3-methyl-2-pyridinecarboxamide] | – | 62 | 37 | –
10 | Cc1cc(OC(F)F)cnc1C(=O)Nc1ccc(F)c([C@]2(CF)CS(=O)(=O)C3(CCC3)C(N)=N2)c1 [Example 412, N-(3-((7S)-9-amino-7-(fluoromethyl)-5,5-dioxido-5-thia-8-azaspiro[3.5]non-8-en-7-yl)-4-fluorophenyl)-5-(difluoromethoxy)-3-methyl-2-pyridinecarboxamide] | – | 52 | 33 | –
11 | COc1cnc2c(Nc3ccc(F)c([C@]4(CF)CS(=O)(=O)C(C)(C)C(N)=N4)c3)nccc2n1 [Example 447, N-(3-((3S)-5-amino-3-(fluoromethyl)-6,6-dimethyl-1,1-dioxido-3,6-dihydro-2H-1,4-thiazin-3-yl)-4-fluorophenyl)-2-methoxypyrido[3,4-b]pyrazin-5-amine] | – | 62 | 42 | –
12 | COc1ccc(C(=O)Nc2ccc(F)c([C@]3(CF)CS(=O)(=O)C(C)(C)C(N)=N3)c2)nc1 [Example 457, N-(3-((3S)-5-amino-3-(fluoromethyl)-6,6-dimethyl-1,1-dioxido-3,6-dihydro-2H-1,4-thiazin-3-yl)-4-fluorophenyl)-5-methoxy-2-pyridinecarboxamide] | – | 67 | 50 | –
13 | COCc1cc(Cl)cnc1C(=O)Nc1ccc(F)c([C@]2(CF)CS(=O)(=O)C(C)(C)C(N)=N2)c1 [Example 458, N-(3-((3S)-5-amino-3-(fluoromethyl)-6,6-dimethyl-1,1-dioxido-3,6-dihydro-2H-1,4-thiazin-3-yl)-4-fluorophenyl)-5-chloro-3-(methoxymethyl)-2-pyridinecarboxamide] | – | 35 | 8 | –

Second part, led by results:

Row | IC50 [1] [µM] | SMILES | % reduction of rat CSF levels at 10 pmk [3] [%] | % reduction of rat brain levels at 10 mpk [3] [%] | also measured
14 | > 400 | COc1cnc(C(=O)Nc2ccc(F)c([C@]3(C)CSCC(N)=N3)c2)cn1 [Example 43, (R)—N-(3-(5-amino-3-methyl-3,6-dihydro-2H-1,4-thiazin-3-yl)-4-fluorophenyl)-5-methoxypyrazine-2-carboxamide] | – | – | –
15 | 101 | COc1cnc2c(Nc3cnc(F)c([C@]4(C)CS(=O)(=O)C(C)(C)C(N)=N4)c3)nccc2c1 [Example 66, N-(5-((3R)-5-amino-3,6,6-trimethyl-1,1-dioxido-3,6-dihydro-2H-1,4-thiazin-3-yl)-6-fluoro-3-pyridinyl)-3-methoxy-1,7-naphthyridin-8-amine] | – | – | IC50 [2]: 0.0043 µM
16 | 11.3 | CC1(C)C(N)=N[C@](C)(c2cc(Nc3nccc4cc(Cl)cnc34)cc(F)c2F)CS1(=O)=O [Example 69, (R)-5-Amino-3-(5-((3-chloro-1,7-naphthyridin-8-yl)amino)-2,3-difluorophenyl)-3,6,6-trimethyl-3,6-dihydro-2H-1,4-thiazine 1,1-dioxide] | – | – | IC50 [2]: 0.0014 µM
17 | 400 | C[C@]1(c2cc(NC(=O)c3cnc(C(F)F)cn3)ccc2F)N=C(N)C2(CCC2)S(=O)(=O)[C@@H]1F [Example 140, N-(3-((6S,7R)-9-amino-6-fluoro-7-methyl-5,5-dioxido-5-thia-8-azaspiro[3.5]non-8-en-7-yl)-4-fluorophenyl)-5-(difluoromethyl)pyrazine-2-carboxamide] | – | – | –
18 | 322 | CC1(C)C(N)=NC2(c3cc(Br)ccc3F)COCC2S1(=O)=O (stereo not shown) [Example 185, 3-amino-4a-(5-bromo-2-fluorophenyl)-2,2-dimethyl-4a,5,7,7a-tetrahydro-2H-furo[3,4-b][1,4]thiazine 1,1-dioxide] | – | – | IC50 ([2]; average IC50, enzyme assay): 30.2 µM
